Values after ≈ are worked out from the molar mass of the structure shown. Each block holds one molecule with its values, some of them ahead of it.
What was measured:
drying studies for H-1 = type: physicochemical
Excerpt: (§1) Based on the equilibrium RH studies, N-2 could undergo hydrate formation during handling, formulation or storage.

[1] = slurry conversion studies in butanol/water mixtures (N-2/H-1); type: physicochemical; conditions: N-2 versus H-1, butanol/water slurry
Excerpt: (§2) The available data establish the following RH range for equilibrium N-2/H-1 conversion: 25%<RHeq<=30%. Wetcakes subjected to RH<30% are subject to dehydration, kinetic factors notwithstanding.

moisture sorption study = type: physicochemical
Excerpt: as §2

[2] = dehydration/heating of monohydrate H-1; type: physicochemical
[3] = aqueous solubility of crystalline forms; type: physicochemical
[4] = solid-state storage stability (temperature/humidity, HIL, filler excipients); type: physicochemical
Excerpt: as §1

[5] = solvate stability by single crystal structure determination at different temperatures; type: physicochemical; conditions: solvent site fully occupied at −50° C., still 50% occupied at +82° C.
Excerpt: In addition to the monohydrate, Compound I also forms solvates with a large number of organic solvents. The type 3 family of solvates (represented by an EtOAc solvate, form EA.5-3; a PrOAc solvate, form PA.5-3; a MeCN solvate, form AN-3; and a CH2CL2 solvate, DC-3) have a large hydrophobic clathrate channel (V˜215 Å^3) parallel to the crystallographic a repeat. […] The single crystal structures of an ethanol solvate (E-8), an isopropanol solvate (IPA-10), a second acetonitrile form (AN-11) and three mixed solvates (SA-9, SB-12, SC-13) with THF and water have been determined.

[6] = slurry conversion studies at 25 and 50° C. and melting data (relative polymorph stability); type: physicochemical
[7] = monkey PK crossover study; type: in vivo; conditions: monkey PK crossover study (n=4)
Excerpt: as §1

[8] = exposed to HIL for at least 1 week
[9] = stored at 50° C./75% RH open and closed for at least 4 weeks

SMILES: Cc1ccc(C(=O)NC2CC2)cc1NC(=O)c1cnn(-c2ncccc2C(F)(F)F)c1C [Form H-1, N-(5-(cyclopropylcarbamoyl)-2-methylphenyl)-5-methyl-1-(3-(trifluoromethyl)pyridin-2-yl)-1H-pyrazole-4-carboxamide]
form conversion on drying (drying studies for H-1; dryer at 20-30% RH): no conversion was observed
form conversion on drying (drying studies for H-1; dryer maintained at 40° C. at RH 2.4-3.4%): converted to N-7
RH at which the form is the more stable form [1]: ≥ 30%
hygroscopicity (moisture sorption study; about 35 to about 75% RH): essentially non-hygroscopic
water sorption, descending RH run (moisture sorption study; at 25% RH): partially dehydrated
form conversion upon heating ([2]; 90° C., 30 m, to neat form T1H1 (N-7)): converts topotactically
stability under reduced humidity ([2]; reduced humidity): unstable
aqueous solubility [3]: 7 µg/mL (≈ 15.8 µM)
chemical and physical stability in the solid-state [4, 8]: chemically and physically stable
chemical and physical stability in the solid-state [4, 9]: chemically and physically stable

SMILES: Cc1ccc(C(=O)NC2CC2)cc1NC(=O)c1cnn(-c2ncccc2C(F)(F)F)c1C [Form M-4]
stability of solvate [5]: relatively stable

SMILES: Cc1ccc(C(=O)NC2CC2)cc1NC(=O)c1cnn(-c2ncccc2C(F)(F)F)c1C [Form N-2, N-(5-(cyclopropylcarbamoyl)-2-methylphenyl)-5-methyl-1-(3-(trifluoromethyl)pyridin-2-yl)-1H-pyrazole-4-carboxamide]
RH at which the form is the more stable form [1]: ≤ 16%
relative stability among polymorphic (neat) forms ([6]; at 25° C. and 50° C.): most stable polymorphic (neat) form
hygroscopicity (moisture sorption study; about 25 to about 75% RH at 25° C.): non-hygroscopic
aqueous solubility [3]: ≥ 28 µg/mL
solubility ratio (N-2 to H-1) ([3]; aqueous solubility, N-2 relative to H-1): ~4 ×
chemical and physical stability in the solid-state [4, 8]: chemically and physically stable
form conversion (hydrate formation) on storage ([4]; stored 3 weeks or more at elevated temperature and humidity (e.g., 50° C./75% RH), in the presence of common filler excipients): no conversion
chemical and physical stability in the solid-state [4, 9]: chemically and physically stable
exposure for the N-2 relative to H-1 [7]: ~2 fold

SMILES: Cc1ccc(C(=O)NC2CC2)cc1NC(=O)c1cnn(-c2ncccc2C(F)(F)F)c1C [Form N-7, N-(5-(cyclopropylcarbamoyl)-2-methylphenyl)-5-methyl-1-(3-(trifluoromethyl)pyridin-2-yl)-1H-pyrazole-4-carboxamide]
relative stability of N-7 (monotropic with N-2, N-5 and N-6) ([6]; versus N-2, N-5 and N-6): less stable at all temperatures below 192 °C

Next, values leading:

relative stability N-5:N-6 (monotropes) ([6]; N-5 versus N-6): more stable
SMILES: Cc1ccc(C(=O)NC2CC2)cc1NC(=O)c1cnn(-c2ncccc2C(F)(F)F)c1C [Form N-5, N-(5-(cyclopropylcarbamoyl)-2-methylphenyl)-5-methyl-1-(3-(trifluoromethyl)pyridin-2-yl)-1H-pyrazole-4-carboxamide]

water sorption, ascending RH run (moisture sorption study; between 75 and 95% RH): partially rehydrates to H-1
SMILES: Cc1ccc(C(=O)NC2CC2)cc1NC(=O)c1cnn(-c2ncccc2C(F)(F)F)c1C [dehydrated H-1]
